Reference: publication PMC6001238, “Iterative Chemical Engineering of Vancomycin Leads to Novel Vancomycin Analogs With a High in Vitro Therapeutic Index” (Frontiers in Microbiology, 2018)
pIC50: −log10 of the molar value. Converted amounts (≈) assume the structure as drawn. Read-outs that look alike come from different tables or passages of the source.

Legend:
VE 149 (VanB) = test: MIC, VanB-type VRE strain VE 149; format: cell-based, Enterococcus; details: Enterococcus
Method in brief: (§1)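 Assayed by broth microdilution under CLSI antimicrobial testing rules. One case paired the analog or control drug with vancomycin at a 10 μM final concentration; water and inoculum-free broth were controls.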

VE 82 (VanC1) = test: MIC, VanC1-type VRE strain VE 82; format: cell-based, Enterococcus gallinarum; details: Enterococcus gallinarum
Method in brief: as §1

[1] = system: L1210, CEM and HeLa cell lines; test: Cytostatic activity, average or summary over L1210, CEM and HeLa; format: cell-based
Method in brief: (§2)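 Readout: Coulter cell number after drug exposure at 37°C. Durations differ by line (L1210 2 days; CEM 3 days; HeLa 4 days). Stock suspension 300,000–500,000 cells/mL, diluted by mixing with compound. Endpoint: IC50 vs negative control.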

VE 148 (VanB) = test: MIC, VanB-type VRE strain VE 148; format: cell-based, Enterococcus; details: Enterococcus
Method in brief: as §1

MRSA KS89 = test: MIC, broth microdilution, MRSA KS89; format: cell-based, Staphylococcus aureus
Method in brief: as §1

[2] = system: S. aureus VSSA (ATCC 6538); test: MIC, broth microdilution, vancomycin-sensitive S. aureus (VSSA/MSSA, ATCC 6538); format: cell-based, Staphylococcus aureus
Method in brief: as §1

E. faecalis VRE 53 = test: MIC, broth microdilution, vancomycin-resistant E. faecalis VRE 53 (VanA); format: cell-based, Enterococcus faecalis
Method in brief: as §1

[3] = system: human T-lymphocyte (CEM) cells; test: Cytostatic activity, CEM cell proliferation; format: cell-based; details: Homo sapiens, CCRF-CEM, 72 h, read-out: Toxicity (IC50) CEM
Method in brief: as §2

[4] = system: 24 clinical MRSA isolates; test: MIC against a set of 24 clinical MRSA isolates (range, MIC50, TI); format: cell-based, Staphylococcus aureus
Method in brief: as §1

MRSA = test: Minimum bactericidal concentration against MRSA; format: cell-based, Staphylococcus aureus
Procedure: Plates were incubated overnight at 37°C and colony growth was inspected.

[5] = system: Clostridium difficile AIU ribotype 027; test: MIC, plate drop assay, C. difficile AIU ribotype 027; format: cell-based
Method in brief: (§3)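 Twofold dilution series of test compounds were spotted onto C. difficile lawns in 0.4% BHI agar containing added calcium and magnesium salts. After overnight anaerobic incubation at 37°C, growth inhibition was scored by spot clearing; triplicate runs, ultrapure water negative control.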

[6] = system: human cervix carcinoma (HeLa) cells; test: Cytostatic activity, HeLa cell proliferation; format: cell-based; details: Homo sapiens, HeLa, 96 h, read-out: Toxicity (IC50) HeLa
Method in brief: as §2

E. faecalis VRE 37 = test: MIC, broth microdilution, vancomycin-resistant E. faecalis VRE 37 (VanA); format: cell-based, Enterococcus faecalis
Method in brief: as §1

MRSA KS1 = test: MIC, broth microdilution, MRSA KS1; format: cell-based, Staphylococcus aureus
Method in brief: as §1

[7] = system: Clostridium difficile ATJ ribotype 014/20; test: MIC, plate drop assay, C. difficile ATJ ribotype 014/20; format: cell-based
Method in brief: as §3

VE 150 (VanB) = test: MIC, VanB-type VRE strain VE 150; format: cell-based, Enterococcus; details: Enterococcus
Method in brief: as §1

[8] = system: Murine leukemia (L1210) cells; test: Cytostatic activity, L1210 cell proliferation; format: cell-based; details: Mus musculus, L1210, 48 h, read-out: Toxicity (IC50) L1210
Method in brief: as §2

S. aureus VRSA = test: MIC, broth microdilution, vancomycin-resistant S. aureus (VRSA); format: cell-based, Staphylococcus aureus
Method in brief: as §1

S. aureus VISA/HIP5827 = test: MIC, broth microdilution, vancomycin-intermediate S. aureus VISA HIP5827; format: cell-based, Staphylococcus aureus
Method in brief: as §1

E. faecalis VSE 1 = test: MIC, broth microdilution, vancomycin-sensitive E. faecalis (VSE 1); format: cell-based, Enterococcus faecalis
Method in brief: as §1

VE 157 (VanB) = test: MIC, VanB-type VRE strain VE 157; format: cell-based, Enterococcus; details: Enterococcus
Method in brief: as §1

VE 152 (VanB) = test: MIC, VanB-type VRE strain VE 152; format: cell-based, Enterococcus; details: Enterococcus
Method in brief: as §1

MRSA KS2 = test: MIC, broth microdilution, MRSA KS2; format: cell-based, Staphylococcus aureus
Method in brief: as §1

MRSA KS6 = test: MIC, broth microdilution, MRSA KS6; format: cell-based, Staphylococcus aureus
Method in brief: as §1

E. faecalis VRE 6 = test: MIC, broth microdilution, vancomycin-resistant E. faecalis VRE 6 (VanA); format: cell-based, Enterococcus faecalis
Method in brief: as §1

E. faecalis VRE 29 = test: MIC, broth microdilution, vancomycin-resistant E. faecalis VRE 29 (VanA); format: cell-based, Enterococcus faecalis
Method in brief: as §1

33 clinical VRE isolates = test: MIC against a set of 33 clinical VRE isolates (range, MIC50, TI); format: cell-based, Enterococcus faecalis; details: VRE; for TI (IC50/MIC50): in vitro therapeutic index
Method in brief: as §1

CN[C@H](CC(C)C)C(=O)N[C@H]1C(=O)N[C@@H](CC(N)=O)C(=O)N[C@H]2C(=O)N[C@H]3C(=O)N[C@H](C(=O)N[C@H](C(=O)O)c4cc(O)cc(O)c4-c4cc3ccc4O)[C@H](O)c3ccc(c(Cl)c3)Oc3cc2cc(c3O[C@@H]2O[C@H](CO)[C@@H](O)[C@H](O)[C@H]2O[C@H]2C[C@](C)(N)[C@H](O)[C@H](C)O2)Oc2ccc(cc2Cl)[C@H]1O [Vancomycin]
MIC (VE 149 (VanB)): 50 µM (≈ 72.5 µg/mL) | MIC (VE 82 (VanC1)): 3.13 µM (≈ 4.54 µg/mL) | pIC50 [1]: 3.60 | pIC50 ([1]; read-out: IC50 (L1210, CEM, HeLa), depending on the cell line used): < 3.60 | pIC50 ([1]; read-out: Toxicity (IC50) Average): < 3.60 | MIC (VE 148 (VanB)): 100 µM (≈ 145 µg/mL) | MIC-fold improvement vs. vancomycin (MRSA KS89; MRSA KS8 (head; KS89 in title), ratio of MIC of vancomycin and MIC of analogue): 1 | MIC (MRSA KS89; Staphylococcus aureus, MRSA): 0.78 µM (≈ 1.13 µg/mL) | MIC ([2]; Staphylococcus aureus, ATCC6538): 0.78 µM (≈ 1.13 µg/mL) | MIC-fold improvement vs. vancomycin ([2]; VSSA, ratio of MIC of vancomycin and MIC of analogue): 1 | MICvanc/MICi (E. faecalis VRE 53; E. faecalis VRE 53, ratio of MIC of vancomycin and MIC of analogue): 1 | MIC (E. faecalis VRE 53; Enterococcus faecalis VRE 53 (vancomycin-resistant), read-out: MIC): 400 µM (≈ 580 µg/mL) | MIC (E. faecalis VRE 53; Enterococcus faecalis, VRE): 400 µM (≈ 580 µg/mL) | MIC-fold improvement vs. vancomycin (E. faecalis VRE 53; VRE 53, ratio of MIC of vancomycin and MIC of analogue): 1 | pIC50 [3]: < 3.60 | MIC Range ([4]; 24 clinical MRSA isolates): 0.78 to 6.25 µM | MIC50 ([4]; Staphylococcus aureus, MRSA): 1.56 µM (≈ 2.26 µg/mL) | TI (IC50/MIC50) ([4]; in vitro therapeutic index, MRSA): 160 | MBC relative to MIC (MRSA): MBC equaling their MIC values | MIC-fold improvement vs. vancomycin ([5]; C. difficile AIU ribotype 027): 1 | MIC ([5]; Clostridioides difficile, C. difficile AIU ribotype 027, plate drop assay): 45 µM (≈ 65.2 µg/mL) | pIC50 [6]: < 3.60 | MIC (E. faecalis VRE 37; Enterococcus faecalis, VRE): 400 µM (≈ 580 µg/mL) | MIC-fold improvement vs. vancomycin (E. faecalis VRE 37; VRE 37, ratio of MIC of vancomycin and MIC of analogue): 1 | MIC-fold improvement vs. vancomycin (MRSA KS1; MRSA KS1, ratio of MIC of vancomycin and MIC of analogue): 1 | MIC (MRSA KS1; Staphylococcus aureus, MRSA): 0.78 µM (≈ 1.13 µg/mL) | MIC-fold improvement vs. vancomycin ([7]; C. difficile ATJ ribotype 014/20): 1 | MIC ([7]; Clostridioides difficile, C. difficile ATJ ribotype 014/20, plate drop assay): 35 µM (≈ 50.7 µg/mL) | MIC (VE 150 (VanB)): 100 µM (≈ 145 µg/mL) | pIC50 [8]: < 3.60 | MIC (S. aureus VRSA; Staphylococcus aureus VRSA): 100 µM (≈ 145 µg/mL) | MIC-fold improvement vs. vancomycin (S. aureus VRSA; VRSA, ratio of MIC of vancomycin and MIC of analogue): 1 | MIC (S. aureus VISA/HIP5827; Staphylococcus aureus, VISA): 6.25 µM (≈ 9.06 µg/mL) | MIC-fold improvement vs. vancomycin (S. aureus VISA/HIP5827; VISA/HIP5827, ratio of MIC of vancomycin and MIC of analogue): 1 | MICvanc/MICi (E. faecalis VSE 1; E. faecalis VSE 1, ratio of MIC of vancomycin and MIC of analogue): 1 | MIC (E. faecalis VSE 1; Enterococcus faecalis VSE 1 (vancomycin-sensitive), read-out: MIC): 1.56 µM (≈ 2.26 µg/mL) | MIC (E. faecalis VSE 1; Enterococcus faecalis, VSE1): 1.56 µM (≈ 2.26 µg/mL) | MIC-fold improvement vs. vancomycin (E. faecalis VSE 1; VSE 1, ratio of MIC of vancomycin and MIC of analogue): 1 | MIC (VE 157 (VanB)): 100 µM (≈ 145 µg/mL) | MIC (VE 152 (VanB)): 50 µM (≈ 72.5 µg/mL) | MIC-fold improvement vs. vancomycin (MRSA KS2; MRSA KS2, ratio of MIC of vancomycin and MIC of analogue): 1 | MIC (MRSA KS2; Staphylococcus aureus, MRSA): 0.78 µM (≈ 1.13 µg/mL) | MIC-fold improvement vs. vancomycin (MRSA KS6; MRSA KS6, ratio of MIC of vancomycin and MIC of analogue): 1 | MIC (MRSA KS6; Staphylococcus aureus, MRSA): 0.78 µM (≈ 1.13 µg/mL) | MICvanc/MICi (E. faecalis VRE 6; E. faecalis VRE 6, ratio of MIC of vancomycin and MIC of analogue): 1 | MIC (E. faecalis VRE 6; Enterococcus faecalis VRE 6 (vancomycin-resistant), read-out: MIC): 200 µM (≈ 290 µg/mL) | MIC (E. faecalis VRE 6; Enterococcus faecalis, VRE): 200 µM (≈ 290 µg/mL) | MIC-fold improvement vs. vancomycin (E. faecalis VRE 6; VRE 6, ratio of MIC of vancomycin and MIC of analogue): 1 | MIC (E. faecalis VRE 29; Enterococcus faecalis, VRE): 400 µM (≈ 580 µg/mL) | MIC-fold improvement vs. vancomycin (E. faecalis VRE 29; VRE 29, ratio of MIC of vancomycin and MIC of analogue): 1 | MIC50 (33 clinical VRE isolates; Enterococcus): 800 µM (≈ 1160 µg/mL) | TI (IC50/MIC50) (33 clinical VRE isolates): 0.3 | TI (IC50/MIC50) (33 clinical VRE isolates; listed as vancomycin): < 1
